The subject of series [1] is Pseudomonas aeruginosa. The experiment in a line: Induction of bacterial aggregation in Pseudomonas aeruginosa PAO1 expressing deltalecB mutant assessed as number of aggregates per 100 uL of PBS cell solution at 100 uM by optical microscopy. It is filed as functional.
In series [2] the test system is Pseudomonas aeruginosa. As to the kind of experiment: Induction of bacterial aggregation in Pseudomonas aeruginosa PAO1 assessed as number of aggregates per 100 uL of PBS cell solution at 100 uM by optical microscopy. It is filed as functional.
A short description of series [3]: Binding affinity to Pseudomonas aeruginosa LecB by ITC method.
Series [4] deals with Pseudomonas aeruginosa. The experiment in a line: Inhibition of biofilm formation of Pseudomonas aeruginosa PAO1 expressing deltalecB mutant at 5 mM after 24 hrs by crystal violet staining. It is filed as functional, organism-based.
Series [5] has as its system Pseudomonas aeruginosa. As to the kind of experiment: Inhibition of biofilm formation of Pseudomonas aeruginosa PAO1 expressing deltalecA mutant at 5 mM after 24 hrs by crystal violet staining. It is filed as functional, organism-based.
Series [6] deals with Pseudomonas aeruginosa. The experiment in a line: Induction of bacterial aggregation in Pseudomonas aeruginosa PAO1 at 6 to 5000 uM by optical microscopy. The class given is functional, organism-based.
Series [7] deals with Pseudomonas aeruginosa. As to the kind of experiment: Inhibition of biofilm formation of Pseudomonas aeruginosa PAO1 at 0.1 to 5 mM after 24 hrs by crystal violet staining. The class given is functional, organism-based.
Series [8] concerns Pseudomonas aeruginosa. As to the kind of experiment: Inhibition of deltalecA mutant expressing Pseudomonas aeruginosa PAO1 adhesion to human A549 cells <250 uM. The class given is functional, organism-based.
The subject of series [9] is Pseudomonas aeruginosa. As to the kind of experiment: Induction of bacterial aggregation in Pseudomonas aeruginosa PAO1 expressing deltalecA mutant assessed as number of aggregates per 100 uL of PBS cell solution at 100 uM by optical microscopy. It is filed as functional, organism-based.
For series [10], the system named is Pseudomonas aeruginosa. The experiment in a line: Induction of bacterial aggregation in Pseudomonas aeruginosa PAO1 expressing deltalecA mutant at 6 to 5000 uM by optical microscopy. The class given is functional, organism-based.
For series [11], the system named is Pseudomonas aeruginosa. As to the kind of experiment: Antimicrobial activity Pseudomonas aeruginosa PAO1 infected C57BL6/J mouse lung injury model assessed as effect on alveolar-capillary permeability using 5 mM compound pre-treated bacteria for infection. The class given is functional, organism-based.
The subject of series [12] is Pseudomonas aeruginosa. As to the kind of experiment: Antimicrobial activity Pseudomonas aeruginosa PAO1 infected C57BL6/J mouse lung injury model assessed as effect on alveolar-capillary permeability using 1 mM compound pre-treated bacteria for infection. The class given is functional, organism-based.
Series [13] relates to Pseudomonas aeruginosa. The experiment in a line: Induction of bacterial aggregation in Pseudomonas aeruginosa PAO1 expressing deltalecB mutant at 6 to 5000 uM by optical microscopy. It is filed as functional, organism-based.
Series [14] has as its system Pseudomonas aeruginosa. As to the kind of experiment: Inhibition of Pseudomonas aeruginosa PAO1 adhesion to human A549 cells 25 to 2500 uM. It is filed as functional.
Series [15] deals with T1, PA-I galactophilic lectin (Pseudomonas aeruginosa (strain ATCC 15692 / PAO1 / 1C / PRS 101 / LMG12228), UniProt Q05097).
T1 sequence (Q05097 whole entry): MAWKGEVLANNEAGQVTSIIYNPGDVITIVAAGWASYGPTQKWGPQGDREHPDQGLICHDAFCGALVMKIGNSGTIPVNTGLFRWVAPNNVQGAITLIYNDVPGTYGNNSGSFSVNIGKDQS
The experiment in a line: Binding affinity to Pseudomonas aeruginosa LecA by ITC method. For orientation: Isothermal titration calorimetry measures the heat released or taken up as one component is titrated into another.

The test system of series [16] is Pseudomonas aeruginosa. The experiment in a line: Inhibition of deltalecA mutant expressing Pseudomonas aeruginosa PAO1 adhesion to human A549 cells 250 to 2500 uM. The class given is functional, organism-based.
In series [17] the test system is Pseudomonas aeruginosa. As to the kind of experiment: Effect on growth of Pseudomonas aeruginosa PAO1 at 0.1 to 5 mM after 24 hrs. It is filed as organism-based. Conditions: 5000 µM.
The subject of series [18] is Pseudomonas aeruginosa. As to the kind of experiment: Inhibition of Pseudomonas aeruginosa PAO1 localization at human A549 cell membranes at 250 to 2500 uM by confocal microscopy. The class given is functional, organism-based.
Series [19] concerns Pseudomonas aeruginosa. As to the kind of experiment: Antimicrobial activity Pseudomonas aeruginosa PAO1 infected C57BL6/J mouse lung injury model assessed as reduction in alveolar-capillary permeability using 1 mM compound pre-treated bacteria for infection. It is filed as functional.
Series [20] concerns Pseudomonas aeruginosa. As to the kind of experiment: Induction of filamentous-like and spherical bacterial aggregation in Pseudomonas aeruginosa PAO1 at 6 to 6600 uM by optical microscopy. It is filed as functional, organism-based.
Series [21] deals with Pseudomonas aeruginosa. The experiment in a line: Inhibition of biofilm formation of Pseudomonas aeruginosa PAO1 at 5 mM after 24 hrs by crystal violet staining. It is filed as functional, organism-based.
Series [22] deals with Pseudomonas aeruginosa. As to the kind of experiment: Antimicrobial activity Pseudomonas aeruginosa PAO1 infected C57BL6/J mouse lung injury model assessed as reduction in alveolar-capillary permeability using 5 mM compound pre-treated bacteria for infection. It is filed as functional.
Series [23] concerns Pseudomonas aeruginosa. The experiment in a line: Inhibition of biofilm formation of Pseudomonas aeruginosa PAO1 at 0.1 mM after 24 hrs by crystal violet staining. The class given is functional, organism-based.
Series [24] has as its system Pseudomonas aeruginosa. The experiment in a line: Antimicrobial activity Pseudomonas aeruginosa PAO1 infected C57BL6/J mouse lung injury model assessed as protection against lung infection using 1 to 5 mM compound pre-treated bacteria for infection. It is filed as functional, organism-based.
The subject of series [25] is Pseudomonas aeruginosa. As to the kind of experiment: Induction of filamentous-like and spherical bacterial aggregation in Pseudomonas aeruginosa PAO1 expressing deltalecA mutant at 6 to 6600 uM by optical microscopy. It is filed as functional, organism-based.
Series [26] has as its system Pseudomonas aeruginosa. The experiment in a line: Induction of filamentous-like and spherical bacterial aggregation in Pseudomonas aeruginosa PAO1 expressing deltalecB mutant at 6 to 6600 uM by optical microscopy. The class given is functional, organism-based.
Series [27] relates to Pseudomonas aeruginosa. The experiment in a line: Inhibition of deltalecA mutant expressing Pseudomonas aeruginosa PAO1 adhesion to human A549 cells 25 to 2500 uM. It is filed as functional, organism-based.
Series [28] concerns Pseudomonas aeruginosa. As to the kind of experiment: Inhibition of deltalecB mutant expressing Pseudomonas aeruginosa PAO1 adhesion to human A549 cells 25 to 2500 uM. The class given is functional, organism-based.
Series [29] concerns the target T2, PA-I galactophilic lectin (Pseudomonas aeruginosa (strain ATCC 15692 / PAO1 / 1C / PRS 101 / LMG12228)) (UniProt Q05097).
T2 sequence (whole entry): T1 sequence (Q05097 whole entry)
As to the kind of experiment: Binding affinity to Pseudomonas aeruginosa LecA at 1.5 mM by ITC method.

Series [30] has as its system Pseudomonas aeruginosa. The experiment in a line: Binding affinity to Pseudomonas aeruginosa LecB at 1.5 mM by ITC method.

This note sets out measurements from ChEMBL document CHEMBL3352371, “Antiadhesive properties of glycoclusters against Pseudomonas aeruginosa lung infection” (J Med Chem, 2014).

Each structure is given as a SMILES string. Calls of active or inactive are those of the source. The rule behind the calls is not given here.

As for `CC(C)(C)c1cc2c(OCc3cn(CCOCCOCCO[C@H]4O[C@H](CO)[C@@H](O)[C@H](O)[C@@H]4O)nn3)c(c1)Cc1cc(C(C)(C)C)cc(c1OCc1cn(CCOCCOCCO[C@H]3O[C@H](CO)[C@@H](O)[C@H](O)[C@@H]3O)nn1)Cc1cc(C(C)(C)C)cc(c1OCc1cn(CCOCCOCCO[C@H]3O[C@H](CO)[C@@H](O)[C@H](O)[C@@H]3O)nn1)Cc1cc(C(C)(C)C)cc(c1OCc1cn(CCOCCOCCO[C@H]3O[C@H](CO)[C@@H](O)[C@H](O)[C@@H]3O)nn1)C2`, the results for the Activity in [1] and in series [2] were 11 and 70, respectively. The molecule further had a Kd in [3] of 2270 nM. For the same molecule, the inhibition result in series [4] and in series [5] was “inactive” in each case.
Regarding `CO[C@@H]1O[C@H](CO)[C@H](O)[C@H](O)[C@H]1O`, the result in series [6], in [1], in series [9], in [2], in series [10] and in series [11] was inactive. The result in series [12] and in series [13] was inactive. The inhibition entry in [7] and in [8] was “inactive” in each case. Also, the “inhibition (INH)” value in series [14] was determined as 30%.
Consider `OCc1cn(CCOCCOCCO[C@@H]2O[C@H](CO)[C@H](O)[C@H](O)[C@H]2O)nn1`, for which binding in [15] was put at a Kd of 150000 nM.
As to `CO[C@H]1O[C@H](CO)[C@@H](O)[C@H](O)[C@@H]1O`, the outcome in series [1], in series [9] and in series [2] was inactive.
Turning to `CO[C@H]1O[C@H](CO)[C@H](O)[C@H](O)[C@H]1O`, the outcome in series [6], in [1], in series [9], in [2], in [10] and in series [13] was inactive.
On to `C[C@H]1O[C@@H](OCCOCCOCCn2cc(COc3c4cc(C(C)(C)C)cc3Cc3cc(C(C)(C)C)cc(c3OCc3cn(CCOCCOCCO[C@@H]5O[C@H](CO)[C@H](O)[C@H](O)[C@H]5O)nn3)Cc3cc(C(C)(C)C)cc(c3OCc3cn(CCOCCOCCO[C@@H]5O[C@H](CO)[C@H](O)[C@H](O)[C@H]5O)nn3)Cc3cc(C(C)(C)C)cc(c3OCc3cn(CCOCCOCCO[C@@H]5O[C@H](CO)[C@H](O)[C@H](O)[C@H]5O)nn3)C4)nn2)[C@H](O)[C@@H](O)[C@H]1O`, for which the inhibition entry in [16], in series [18], in [21], in series [4] and in series [5] was “Active” in each case. In [17], the Activity result is given as “Non-toxic”. For the same molecule, the inhibition entry in [8] and in series [23] was “inactive” in each case. The “inhibition (INH)” value in [19] was determined as 50%; in series [22], 50%; in series [14], 70%. Besides, the result in [9], in series [24] and in [25] was inactive. For the same molecule, the result in series [20] was Active. Also, in series [15], binding was characterised by a dissociation constant (Kd) of 176 nM.
As for `C[C@@H]1O[C@@H](OCCOCCOCCn2cc(COc3c4cc(C(C)(C)C)cc3Cc3cc(C(C)(C)C)cc(c3OCc3cn(CCOCCOCCO[C@@H]5O[C@@H](C)[C@@H](O)[C@@H](O)[C@@H]5O)nn3)Cc3cc(C(C)(C)C)cc(c3OCc3cn(CCOCCOCCO[C@@H]5O[C@@H](C)[C@@H](O)[C@@H](O)[C@@H]5O)nn3)Cc3cc(C(C)(C)C)cc(c3OCc3cn(CCOCCOCCO[C@@H]5O[C@@H](C)[C@@H](O)[C@@H](O)[C@@H]5O)nn3)C4)nn2)[C@@H](O)[C@H](O)[C@@H]1O`, the Activity entry is “Non-toxic” in series [17] and 50 in series [1]. For the same molecule, the inhibition entry in series [18], in series [21], in series [27], in series [4] and in series [5] was “Active” each time. Besides, the “inhibition (INH)” value worked out at 50% in series [19], 50% in series [22] and 90% in series [14]. Moreover, the result in [26] and in series [20] was Active. Further, in series [3], the Kd was determined as 48 nM. The inhibition result in series [23] and in [28] was “inactive” each time. Moreover, the result in series [24] was inactive.
As for `CO[C@@H]1O[C@@H](C)[C@@H](O)[C@@H](O)[C@@H]1O`, the result in series [6], in [10], in [11], in [12] and in [13] was inactive. Moreover, the inhibition result in series [7] and in series [28] was “inactive” in each case. In [27], the inhibition result is “Active”. The “inhibition (INH)” value in series [14] came to 65%.
For `CC(C)(C)c1cc2c(OCc3cn(CCOCCOCCO[C@@H]4O[C@H](CO)[C@@H](O)[C@H](O)[C@H]4O)nn3)c(c1)Cc1cc(C(C)(C)C)cc(c1OCc1cn(CCOCCOCCO[C@@H]3O[C@H](CO)[C@@H](O)[C@H](O)[C@H]3O)nn1)Cc1cc(C(C)(C)C)cc(c1OCc1cn(CCOCCOCCO[C@@H]3O[C@H](CO)[C@@H](O)[C@H](O)[C@H]3O)nn1)Cc1cc(C(C)(C)C)cc(c1OCc1cn(CCOCCOCCO[C@@H]3O[C@H](CO)[C@@H](O)[C@H](O)[C@H]3O)nn1)C2`, the inhibition result in [7], in series [4] and in series [5] was “inactive” each time. Also, the result in [29], in series [1], in series [9], in series [2] and in [30] was inactive.
`C[C@@H]1O[C@@H](OCCOCCOCCn2cc(CO)nn2)[C@@H](O)[C@H](O)[C@@H]1O` came in with a Kd in series [3] of 304 nM.

What is called Kd is the constant that tells how readily two partners part at equilibrium.
